Source: the OPERA property sets (Mansouri et al. 2018)

Question: For `CC1=C(C(=O)Nc2ccccc2)S(=O)CCO1` (stereo not given), which logP is on record?
Answer: 0.64

Question: Which logP does the source give for `Cc1ccc(S(=O)(=O)NC(=O)NN2CCCCC2)cc1` here?
Answer: 1.34

Question: Which logP does the source give for `CCCN(CCC)CC(=O)NCc1ccccc1` here?
Answer: 3.11

Question: With `CC1CC(C)(C)CC(c2ccccc2)(N2CCCCC2)C1` (stereo not given) as the compound, how does the logP read?
Answer: 6.35

Question: Which logP does the source give for `O=C1C2C3C=CC(C3)C2C(=O)N1CCCCN1CCN(c2ncccn2)CC1` (stereo not given) here?
Answer: 1.36

Question: For `CC(C)N1C(=O)SC(=Cc2ccc([N+](=O)[O-])o2)C1=O`, which logP is on record?
Answer: 2.42

Question: For `CC(C)Oc1ccc(C(=O)c2ccc3n2CCC3C(=O)O)cc1` (stereo not given), which logP is on record?
Answer: 3.38

Question: For `Cc1cccc(C)c1NC(=O)C(C)N` (stereo not given), which logP is on record?
Answer: 0.76

Question: For `COc1cc(Cc2cnc(N)nc2N)ccc1C(C)C`, which logP is on record?
Answer: 3.14

Question: For `OC(CCN1CCCCC1)(c1ccccc1)C1CCCCC1` (stereo not given), which logP is on record?
Answer: 4.49

Question: Which logP does the source give for `CNC(=O)Oc1ccc(N(C)C)c(C)c1` here?
Answer: 1.9

Question: For `c1ccc(-c2ncn[nH]2)cc1`, which logP is on record?
Answer: 1.54

Question: With `CC(=O)OCC1=C(C(=O)OCOC(=O)C(C)(C)C)N2C(=O)C(NC(=O)Cc3cccs3)C2SC1` (stereo not given) as the compound, how does the logP read?
Answer: 1.57

Question: For `COc1cccc2c1C(=O)c1c(O)c3c(c(O)c1C2=O)CC(O)(C(C)=O)CC3OC1CC(N2CCOCC2)C(O)C(C)O1` (stereo not given), which logP is on record?
Answer: 2.31

Question: For `CCOC(=O)C=COc1ccccc1Cl`, which logP is on record?
Answer: 3.55

Question: With `CC(C)c1cc(C(C)C)cc(C2C(=O)c3ccccc3C2=O)c1` as the compound, how does the logP read?
Answer: 5.96

Question: With `OC1(c2ccc(Cl)cc2)CCCCCC1n1cncn1` (stereo not given) as the compound, how does the logP read?
Answer: 3.54

Question: With `Cc1c2ccccc2cc2ccccc12` as the compound, how does the logP read?
Answer: 5.07

Question: Which logP does the source give for `CC1OC(OC2CCC3(C)C(CCC4C3CC(O)C3(C)C(C5=CC(=O)OC5)CCC43O)C2)CC(O)C1O` (stereo not given) here?
Answer: 1.09

Question: For `COCC(O)Cn1cc(Br)nc1[N+](=O)[O-]` (stereo not given), which logP is on record?
Answer: 0.46

Question: For `Cc1cc(N=O)ccc1O`, which logP is on record?
Answer: 1.71

Question: Which logP does the source give for `Cc1ccc2[nH]c(=O)nc(-c3ccccc3)c2c1` here?
Answer: 2.32

Question: For `CCCCC/C=C\C/C=C\C/C=C\C/C=C\CCCC(=O)O`, which logP is on record?
Answer: 6.98

Question: Which logP does the source give for `Cc1ccccc1NC1=NCCN1` here?
Answer: 1.28

Question: For `CCCCC(O)C(=O)O` (stereo not given), which logP is on record?
Answer: 0.81

Question: For `CC(=O)OCC1OC(n2ccc(N)nc2=O)C(OC(C)=O)C1OC(C)=O` (stereo not given), which logP is on record?
Answer: -0.8

Question: For `COc1ccc(C2C(=O)c3ccccc3C2=O)cc1`, which logP is on record?
Answer: 2.88

Question: For `Nc1nc(N)c2nc(-c3ccc(O)cc3)c(N)nc2n1`, which logP is on record?
Answer: 0.92

Question: For `CCCCc1ccc(O)cc1`, which logP is on record?
Answer: 3.65

Question: For `NC1CC1c1ccccc1` (stereo not given), which logP is on record?
Answer: 1.58

Question: Which logP does the source give for `Cc1ccccc1C(=O)c1ccc2n1CCC2C(=O)O` (stereo not given) here?
Answer: 2.9

Question: With `CN(Cc1ccc(Cl)cc1)N=Nc1ccc(C(=O)O)cc1` as the compound, how does the logP read?
Answer: 4.85

Question: For `CCc1nc(N)nc(N)c1-c1ccc(Cl)c(Cl)c1`, which logP is on record?
Answer: 3.03

Question: Which logP does the source give for `O=Nc1ccc(O)c(=O)cc1` here?
Answer: 0.83

Question: Which logP does the source give for `O=C(NN1CC=CCC1)c1ccco1` here?
Answer: 0.81

Question: Which logP does the source give for `CNC1CCc2ccccc2C1` (stereo not given) here?
Answer: 2.38

Question: With `CCCCC(CCC)C(=O)O` (stereo not given) as the compound, how does the logP read?
Answer: 3.01

Question: Which logP does the source give for `COCCc1cnc(-c2ccc(OCC(O)CNCCc3ccc(OC)c(OC)c3)cc2)[nH]1` (stereo not given) here?
Answer: 2.06

Question: With `O=C(O)c1ccc(Cl)cc1Nc1ccc(Cl)cc1` as the compound, how does the logP read?
Answer: 4.97

Question: Which logP does the source give for `CCNC(C)Cc1cccc(C(F)(F)F)c1` (stereo not given) here?
Answer: 3.36

Question: With `Fc1ccc(Cl)c(N=C2NCCN2)c1` as the compound, how does the logP read?
Answer: 1.52

Question: Which logP does the source give for `O=C(c1ccc(-c2ccccc2)cc1)c1ccc2n1CCC2C(=O)O` (stereo not given) here?
Answer: 4.27

Question: With `CC1CCCC(c2ccccc2)(N2CCCCC2)C1` (stereo not given) as the compound, how does the logP read?
Answer: 5.86

Question: With `Oc1cc2ccccc2cc1O` as the compound, how does the logP read?
Answer: 2.24

Question: With `CN(C)CCCCN(Cc1ccc(C(C)(C)C)cc1)c1ccccc1` as the compound, how does the logP read?
Answer: 5.53

Question: With `C[C@@H]1Cc2c(Cl)cc(C(=O)N[C@@H](Cc3ccccc3)C(=O)O)c(O)c2C(=O)O1` as the compound, how does the logP read?
Answer: 4.74

Question: Which logP does the source give for `COC(=O)CCC(C)=O` here?
Answer: -0.13

Question: For `O=C1c2ccccc2C(=O)C1c1ccc(Cl)cc1`, which logP is on record?
Answer: 3.61

Question: With `O=C(Cn1ccnc1[N+](=O)[O-])NC(CO)(CO)CO` as the compound, how does the logP read?
Answer: -1.77

Question: Which logP does the source give for `CC1=CC(=O)C(C(C)C)=CC1=O` here?
Answer: 2.2

Question: With `OCc1ccccc1C(c1ccc(O)cc1)c1ccc(O)cc1` as the compound, how does the logP read?
Answer: 3.27

Question: With `Cc1[nH]c2ccccc2c1C` as the compound, how does the logP read?
Answer: 3.05

Question: Which logP does the source give for `OC(CN1CCCC1)(c1ccc(F)cc1)c1ccc(-c2ccncc2)cc1` (stereo not given) here?
Answer: 3.84

Question: Which logP does the source give for `CNC(=O)NS(=O)(=O)c1ccc(C)cc1` here?
Answer: 0.95

Question: With `CCCCCCCCCCCCCc1ccc(O)cc1` as the compound, how does the logP read?
Answer: 8.2

Question: Which logP does the source give for `O=C(c1c(F)cccc1F)c1ccc2n1CCC2C(=O)O` (stereo not given) here?
Answer: 2.47

Question: With `COc1cc(OC)cc(C2C(=O)c3ccccc3C2=O)c1` as the compound, how does the logP read?
Answer: 2.86

Question: With `CC(C)C(=O)OCC1OC(n2cc(I)c(=O)[nH]c2=O)C1O` (stereo not given) as the compound, how does the logP read?
Answer: 0.83

Question: For `OC(Cn1ccnc1)(c1ccc(F)cc1)c1cccc(-c2ccncc2)c1` (stereo not given), which logP is on record?
Answer: 2.91

Question: For `C=CC(=O)OCCOCCOCCOC(=O)C=C`, which logP is on record?
Answer: 0.96

Question: For `CCCOc1cc(Br)c(Cc2cnc(N)nc2N)cc1OC`, which logP is on record?
Answer: 2.84

Question: Which logP does the source give for `COc1ccc(Cc2cnc(N)nc2N)cc1N(C)C` here?
Answer: 1.68

Question: Which logP does the source give for `CCCCNC(=O)n1cc(F)c(=O)[nH]c1=O` here?
Answer: 1.44

Question: For `CCc1ccc2cc3ccccc3cc2c1`, which logP is on record?
Answer: 5.85

Question: Which logP does the source give for `CCCCOCC(O)Cn1ccnc1[N+](=O)[O-]` (stereo not given) here?
Answer: 1.11

Question: With `CC(C(=O)O)c1ccc(N2Cc3ccccc3C2=O)cc1` (stereo not given) as the compound, how does the logP read?
Answer: 2.77

Question: For `COc1cccc2c1C(=O)c1c(O)c3c(c(O)c1C2=O)CC(O)(C(=O)CO)CC3OC1CC(N2CCOCC2)C(O)C(C)O1` (stereo not given), which logP is on record?
Answer: 1.73

Question: Which logP does the source give for `CCS[C@@H]1O[C@H](CO)[C@H](O)[C@H](O)[C@H]1O` here?
Answer: -1.51

Question: With `O=[N+]([O-])c1ccc(Cc2ccncc2)cc1` as the compound, how does the logP read?
Answer: 2.88

Question: With `Cc1cc(C)cc(NS(=O)(=O)c2ccc(N)cc2)c1` as the compound, how does the logP read?
Answer: 2.52
